According to US7459446B2, “Treatment of diabetes with copper binding compounds” (priority 1998, dated 2008):
Where two headings read alike, the source gives them in different places. Marks after values point to notes of the source that are not given here.

What was measured:
[1] = cited from earlier work; for bioavailability: oral administration
[2] = tested on: fructosamine oxidase; test: fructosamine oxidase inhibition assay in human sera (ferricytochrome c, g-BSA substrate); assay type: biochemical; conditions: read-out: IC50 (concentration of inhibitor causing 50% inactivation of the enzyme)
[3] = tested on: streptozocin-diabetic rat (STZ rat); test: First preclinical study: intravenous streptozotocin diabetic rat, 8 months; assay type: in vivo, Wistar rats; conditions: for Survivors at week 32 / mean weight change amongst surviving study animals: rat, in vivo; for Glucose: week 4, mean±SD; for Glucose / HbA1c: 50 mg/L in drinking water; for HbA1c: week 32, mean±SD
[4] = tested on: fructosamine oxidase; test: fructosamine oxidase inhibition assay in human sera (ferricytochrome c, g-BSA substrate); assay type: biochemical
From the text: The effectiveness of the inhibitor was expressed not by an equilibrium constant but by a velocity constant (K) which determined the fraction of the enzyme inhibited in a given period of time by a certain concentration of inhibitor.

[5] = tested on: streptozocin-diabetic rat (STZ rat); test: Second preclinical study: intraperitoneal streptozotocin diabetic rat, 6 months; assay type: in vivo, Wistar rats; set-up: Mean ± SEM weight gain: unit not given here; conditions: for Mean ± SEM weight gain: beginning to end of the 24 week period; for effect on weight gain (in words): compared with untreated STZ diabetic control rats, 6-month period; for % with cataract / No with cataract: gross cataract formation; for % with cataract / No with cataract / No with severe fibrosis: week 24; for No with severe fibrosis: gross myocardial fibrosis; for mortality rate: rat, in vivo
[6] = beagle dogs, cited from earlier work
[7] = solutions exposed to light at room temperature, 24 hours; cited from earlier work
[8] = cited from earlier work
[9] = fresh human sera, 0-1,000 μM inhibitor, 0.05 M TES buffer pH 7.4, 37° C., 5 minutes

In the case of `O=C(O)CN(CCN(CC(=O)O)CC(=O)O)CC(=O)O` [EDTA, ethylenediamine tetraacetic acid], the bioavailability [1] is given as “less than 5%”, the IC50 ([2]; pH 7.4) is given as 15.7 µM and the “Survivors at week 32” value [3] is given as 5. For the same compound, the “mean weight change amongst surviving study animals” value [3] was “+1.2%”, the Glucose [3] was 39.0 ± 6.04 mmol/L and the HbA1c [3] was 9.30 ± 0.63%. For the same compound, the “K (velocity/rate constant)” value ([4]; 10.0 μM inhibitor (*)) was 0.0755* min^−1.
With `CC(=O)N[C@@H](CS)C(=O)O` [acetylcysteine] the IC50 ([2]; pH 7.4) was 0.83 µM, the “Survivors at week 32” value [3] was 7 and the “mean weight change amongst surviving study animals” value [3] was −8.1%. For the same compound, the Glucose [3] was 37.8 ± 5.2 mmol/L, the HbA1c [3] was 9.47 ± 1.23% and the “K (velocity/rate constant)” value ([4]; 1.0 μM inhibitor) was 0.1677 min⁻¹.
For `CC(=O)N[C@H](C(=O)O)C(C)(C)S` [acetylpenicillamine], the IC50 [2, 9] was 1.06 µM and the “K (velocity/rate constant)” value ([4]; 1.0 μM inhibitor) was 0.0811 min⁻¹.
With `N=C(N)NN` [aminoguanidine] the IC50 [2, 9] was 231 µM and the “K (velocity/rate constant)” value ([4]; 10.0 μM inhibitor (*)) was 0.0067* min^−1.
With `NC(CO)C(=O)NNCc1ccc(O)c(O)c1O` (centres unmarked) [benserazide] the IC50 [2, 9] was 13.6 µM and the “K (velocity/rate constant)” value ([4]; 10.0 μM inhibitor (*)) was 0.0095* min^−1.
For `C[C@H](CS)C(=O)N1CCC[C@H]1C(=O)O` [captopril], the “binding in vivo to albumin and other plasma proteins” value ([1]; in vivo) is listed as “almost completely bound”, the bioavailability [1] is listed as “approximately 65%” and the IC50 ([2]; pH 7.4) is listed as 1.78 µM. The HbA1c ([5]; Week 4, mean±SD) was 8.5 ± 0.9, the HbA1c ([5]; Week 12, mean±SD) was 9.2 ± 1.1 and the HbA1c ([5]; Week 24, mean±SD) was 9.4 ± 01.3. For the same compound, the “Mean ± SEM weight gain” value [5] was 60.7 ± 20.7, the “effect on weight gain (in words)” value [5] was “ineffective” and the “% with cataract” value [5] was 25%. The No with cataract [5] was 2, the “No with severe fibrosis” value [5] was 6 and the mortality rate [5] was 0%. The “K (velocity/rate constant)” value ([4]; 1.0 μM inhibitor) was 0.0259 min⁻¹.
For `C[C@@](Cc1ccc(O)c(O)c1)(NN)C(=O)O` [carbidopa], the IC50 ([2]; pH 7.4) is listed as 0.5 µM, the absolute bioavailability ([6]; oral) is listed as 88% and the biological half-life [6] is listed as 5 hours. For the same compound, the oral absorption [6] was “almost complete”, the HbA1c ([5]; Week 4, mean±SD) was 9.0 ± 1.0 and the HbA1c ([5]; Week 12, mean±SD) was 9.6 ± 0.7. The HbA1c ([5]; Week 24, mean±SD) was 9.9 ± 1.1, the “Mean ± SEM weight gain” value [5] was 33.7 ± 20.4 and the “effect on weight gain (in words)” value [5] was “ineffective”. For the same compound, the “% with cataract” value [5] was 25%, the No with cataract [5] was 2 and the “No with severe fibrosis” value [5] was 2. For the same compound, the mortality rate [5] was 0%, the oxidative degradation [7] was 50% and the “K (velocity/rate constant)” value ([4]; 1.0 μM inhibitor) was 0.1496 min⁻¹.
For `CC(=O)N(O)CCCCCNC(=O)CCC(=O)N(O)CCCCCNC(=O)CCC(=O)N(O)CCCCCN` [desferrioxamine], the IC50 ([2]; pH 7.4) was 40.6 µM and the “K (velocity/rate constant)” value ([4]; 10.0 μM inhibitor (*)) was 0.0109* min^−1.
In the case of `N/N=C(\N)NN` [diaminoguanidine], the IC50 ([2]; pH 7.4) is reported as 0.36 µM and the “K (velocity/rate constant)” value [4] is reported as 0.1340 min⁻¹.
In the case of `CCOC(=O)[C@H](CCc1ccccc1)N[C@@H](C)C(=O)N1CCC[C@H]1C(=O)O` [enalapril], the IC50 [2, 9] is reported as 3.95 µM and the “K (velocity/rate constant)” value ([4]; 1.0 μM inhibitor) is reported as 0.0326 min⁻¹.
With `N[C@@H](Cc1c[nH]cn1)C(=O)O` [histidine] the IC50 [2, 9] was 2.29 µM and the “K (velocity/rate constant)” value ([4]; 1.0 μM inhibitor) was 0.0554 min⁻¹.
In the case of `NNc1nncc2ccccc12` [hydralazine], the bioavailability ([8]; man, oral administration) is listed as 26-55%, the “drug excreted in the urine unchanged” value ([8]; over 24 hours after oral administration) is listed as 2.0-3.6% and the “Survivors at week 32” value [3] is listed as 6. For the same compound, the “mean weight change amongst surviving study animals” value [3] was −11.0%, the Glucose [3] was 35.7 ± 9.5 mmol/L and the HbA1c [3] was 8.65 ± 1.18%.
In the case of `NCCCC[C@H](N[C@@H](CCc1ccccc1)C(=O)O)C(=O)N1CCC[C@H]1C(=O)O` [lisinopril], the IC50 [2, 9] is reported as 217 µM and the “K (velocity/rate constant)” value ([4]; 1.0 μM inhibitor) is reported as 0.0174 min⁻¹.
In the case of `c1cnc2c(c1)ccc1cccnc12` [o-phenathroline], the IC50 [2, 9] is reported as 4.25 µM and the “K (velocity/rate constant)” value ([4]; 1.0 μM inhibitor) is reported as 0.0385 min⁻¹.
For `NNC(=O)C(=O)NN` [oxalic dyhydrazide], the IC50 [2, 9] was 1.59 µM and the “K (velocity/rate constant)” value ([4]; 1.0 μM inhibitor) was 0.0542 min⁻¹.
For `NNc1ccccc1` [phenylhydrazine], the IC50 ([2]; pH 7.4) was 0.81 µM and the “K (velocity/rate constant)” value [4] was 0.1160 min⁻¹.
In the case of `NNC(N)=O` [semicarbazide], the IC50 ([2]; pH 7.4) is reported as 45 µM and the “K (velocity/rate constant)” value [4] is reported as 0.0276* min^−1.
